Where “and” joins values, the source holds several entries; their conditions need not be identical. Equal entries are not always repeated.
Columns and labels:
L1210 leukemia = assay: L1210 screening (L1210 leukemia tumor model), increase in life span; assay type: in vivo, Female CDF1 mice
Experimental: Female CDF1 mice (16-22 g) are injected with a suspension of 1 x 10^6 tumor cells in 0.5 mL of 0.15 M saline on day zero. On day one, the mice receive the test compound in 0.5 mL of the chosen medium (usually water). Six mice were used for each test dose, with six doses normally being run. Normal controls (six mice) receive tumor on day zero and 0.5 mL of the test medium on day one. Positive controls (six mice) receive tumor on day zero and 8 mg/kg cisplatin in 0.5 mL of 0.15 M saline on day one. All compound doses are adjusted for the actual average weight of the mice involved. Testing is terminated at three times the normal control mean life span. The percent increase in lifespan (ILS) is calculated as follows: %ILS = [(mean life span (test)/mean life span(control)-I]x100 A 25% ILS or greater indicates activity. The maximum possible ILS is 200%. The positive control must have an ILS of S 25% for the test to be considered valid.
The tumor line is maintained by transfer of 5 x 10^4- cells in 0.1 mL saline every seven days. DBA/2 (18-22 g) mice are employed for tumor transfers

[1] = Toxicity testing: hematocrit and average cage weights; assay type: in vivo, mice; conditions: 240 mg/kg
Experimental: (PVA = 2-phosphonovalerate). Based on the screening results, initial dosing was established at approximately twice the peak active dose in the SI80 screen. Both a cisplatin control, also run at twice the peak active dose, and a negative control experiment, were run for comparative purposes. BUN was measured by using a kit manufactured by Harleco (No. 64667). WBC was measured by lysing the red blood cells with 3% acetic acid and counting the white cells using a haemocytometer.
Data obtained for Na[Pt(trans-R,R-dach)(PVA)] was taken at 240 mg/kg. […] Myelosuppresion however, was apparent. The WBC depression for this compound was 63% relative to controls. […] Average cage weights for the test mice were also taken over the seven day test period. The mice lost an average of 5.9 g (27.3%) of body weight over this time.

[2] = Toxicity testing: WBC (myelosuppression); assay type: in vivo, mice; conditions: for WBC: change vs. controls
Experimental: (§1) (PVA = 2-phosphonovalerate). Based on the screening results, initial dosing was established at approximately twice the peak active dose in the SI80 screen. […] WBC was measured by lysing the red blood cells with 3% acetic acid and counting the white cells using a haemocytometer.
(§2) Data obtained for Na[Pt(trans-R,R-dach)(PVA)] was taken at 240 mg/kg. […] Average cage weights for the test mice were also taken over the seven day test period.

Sarcoma 180 ascites = assay: S180a screening (Sarcoma 180 ascites tumor model), increase in life span; assay type: in vivo, CFW mice; conditions: for Surv.: survivors on day of evaluation
Experimental: CFW mice, averaging 20 g, are innoculated on day zero with 0.2 mL of a freshly prepared saline suspension (0.15 M NaCI) containing 1 × 10^7 tumor cells/mL, or a total of 2 x 10^6 cells. On day I, the mice are injected with the test compound in the selected medium (usually water). Six mice are used per test dose, with six doses normally being run.
Also, on day one, two types of controls (6 mice/set are employed: (1) Normal (1 set): 0.5 mL of the solvent medium used for the test compound, and (2) Positive control (1 set): cis-[Pt(NH3)2Cl2] in saline at 8 mg/kg.
The effectiveness of a compound is measured in terms of the increase in life span (ILS) of the test animals relative to the controls calculated from the day of tumor inoculation (day zero). The day of evaluation is arbitrarily taken as that day corresponding to twice the mean life-span of the normal controls. This sets a practical upper limit of 100% on the ILS attainable. For calculation purposes, survivors on the day of evaluation are considered to have died on that day. The % ILS is formulated as: [formula]
ILS values above 50% represent activity. The positive controls must have an ILS of ≧ 50% for the test to be valid.

[3] = Toxicity testing: BUN (kidney toxicity); assay type: in vivo, mice; conditions: for BUN: change vs. controls
Experimental: as §1, §2

[4] = dose 10.00 mg/kg on day 1, vehicle water
[5] = dose 10.00 mg/kg on day 1, vehicle water, survivors
[6] = dose 20.00 mg/kg on day 1, vehicle water
[7] = dose 20.00 mg/kg on day 1, vehicle water, survivors
[8] = dose 40.00 mg/kg on day 1, vehicle water
[9] = dose 40.00 mg/kg on day 1, vehicle water, survivors
[10] = dose 80.00 mg/kg on day 1, vehicle water
[11] = dose 80.00 mg/kg on day 1, vehicle water, survivors
[12] = dose 160.00 mg/kg on day 1, vehicle water
[13] = dose 160.00 mg/kg on day 1, vehicle water, survivors
[14] = dose 320.00 mg/kg on day 1, vehicle water
[15] = dose 320.00 mg/kg on day 1, vehicle water, survivors

Compound	%ILS (L1210 leukemia; [4]) [%]	Surv. (L1210 leukemia; [5])	%ILS (L1210 leukemia; [6]) [%]	Surv. (L1210 leukemia; [7])	%ILS (L1210 leukemia; [8]) [%]	Surv. (L1210 leukemia; [9])	%ILS (L1210 leukemia; [10]) [%]	Surv. (L1210 leukemia; [11])	%ILS (L1210 leukemia; [12]) [%]	Surv. (L1210 leukemia; [13])	%ILS (L1210 leukemia; [14]) [%]	Surv. (L1210 leukemia; [15])	%ILS (Sarcoma 180 ascites; [8]) [%]	Surv. (Sarcoma 180 ascites; [8])	%ILS (Sarcoma 180 ascites; [10]) [%]	Surv. (Sarcoma 180 ascites; [10])	%ILS (Sarcoma 180 ascites; [12]) [%]	Surv. (Sarcoma 180 ascites; [12])	%ILS (Sarcoma 180 ascites; [4]) [%]	Surv. (Sarcoma 180 ascites; [4])	other results
CCCC1C(=O)[O][Pt][O]P1(=O)[O-].NC1CCCCC1N.[Na+] (mixture of isomers) [Ex 18, Na[Pt(trans-R,R-dach)(2-phosphonovaierate)]]	36	0/ 6	25	0/ 6	33	0/ 6	33	0/ 6	109	0/ 6	24	1/ 6	77	1/ 6	92	5/ 6	44	1/ 6	–	–	hematocrits (ratio of packed red blood cells to volume of whole blood) [1]: low hematocrits; WBC depression relative to controls ([2]; 240 mg/kg): 63%; WBC ([2]; dose 240 mg/kg): -63%; BUN decrease vs. controls ([3]; 240 mg/kg): 4%; average BUN level ([3]; 240 mg/kg, test mice): 34.7 mg/dL; BUN ([3]; dose 240 mg/kg): -4%; kidney toxicity ([3]; judged from BUN elevation): not kidney toxic at this dose
CCC(C)(C(=O)[O-])P(=O)([O-])[O-].N[C@@H]1CCCC[C@H]1N.[Na+].[Pt+2] (relative stereo) [Ex 22, Na[Pt(trans-R,R-dach)(2-methyl-2-phosphonobutyrate)]]	45	0/ 6	35	0/ 6	70	1/ 6	94	1/ 6	114	3/ 6	-39	0/ 6	82	4/ 6	100	6/ 6	86	2/ 6	28	1/ 6	%ILS (Sarcoma 180 ascites; [6]): 20%; Surv. (Sarcoma 180 ascites; [6]): 0/ 6; %ILS (Sarcoma 180 ascites; [14]): -78%; Surv. (Sarcoma 180 ascites; [14]): 0/ 6
N[C@@H]1CCCC[C@H]1N.O=C1[O][Pt][O]P1(=O)[O-].[Na+] [Ex 20, Na[Pt(trans-R,R-dach)(phosphonoformate)]]	-17	0/ 6	-20	0/ 6	-14	0/ 6	-7	0/ 6	11	0/ 6	20	0/ 6	7	0/ 6	18	0/ 6	59	0/ 6	6	0/ 6	%ILS (Sarcoma 180 ascites; [6]): -5%; Surv. (Sarcoma 180 ascites; [6]): 0/ 6; %ILS (Sarcoma 180 ascites; [14]): 55%; Surv. (Sarcoma 180 ascites; [14]): 0/ 6
Na[Pt(trans-R, R-dach)(2-phosphono-1,7-heptanedicarboxylate)] [Ex 23]	59	0/ 6	67	0/ 6	88	0/ 6	133	3/ 6	161	3/ 6	-32	0/ 6	45	2/ 6	86	4/ 6	34	4/ 6	20	0/ 6	%ILS (Sarcoma 180 ascites; [6]): 31%; Surv. (Sarcoma 180 ascites; [6]): 0/ 6; %ILS (Sarcoma 180 ascites; [14]): -37%; Surv. (Sarcoma 180 ascites; [14]): 1/ 6
cis-[Pt(NH3)2Cl2] [Cisplatin, reference compound]	–	–	–	–	–	–	–	–	–	–	–	–	–	–	–	–	–	–	–	–	POS. CONT. Surv. (L1210 leukemia; positive control of the same test: 8 mg/kg cisplatin in 0.15 M saline on day 1, survivors, listed as POS. CONT.): 0/ 6 and 1/ 6 and 3/ 6 and 2/ 6; WBC ([2]; dose 15 mg/kg): -7%; POS. CONT. %ILS (Sarcoma 180 ascites; positive control of the same test: cis-[Pt(NH3)2Cl2] in saline at 8 mg/kg on day 1, listed as POS. CONT., 8 mg/kg): 89% and 85% and 70% and 55% and 94% and 74% and 86% and 68%; POS. CONT. Surv. (Sarcoma 180 ascites; positive control of the same test: cis-[Pt(NH3)2Cl2] in saline at 8 mg/kg on day 1, survivors, listed as POS. CONT., 8 mg/kg): 4/ 6 and 3/ 6 and 2/ 6 and 1/ 6; BUN ([3]; dose 15 mg/kg): +98%
